26 compounds from patent US8173654B2, “Triazolopyridazine compounds” (Janssen Pharmaceutica N.V., priority 2005, dated 2012) can be followed below.

Bounds are passed on as bounds.

Chain of c-Met (P08581 956-1390 limits assumed): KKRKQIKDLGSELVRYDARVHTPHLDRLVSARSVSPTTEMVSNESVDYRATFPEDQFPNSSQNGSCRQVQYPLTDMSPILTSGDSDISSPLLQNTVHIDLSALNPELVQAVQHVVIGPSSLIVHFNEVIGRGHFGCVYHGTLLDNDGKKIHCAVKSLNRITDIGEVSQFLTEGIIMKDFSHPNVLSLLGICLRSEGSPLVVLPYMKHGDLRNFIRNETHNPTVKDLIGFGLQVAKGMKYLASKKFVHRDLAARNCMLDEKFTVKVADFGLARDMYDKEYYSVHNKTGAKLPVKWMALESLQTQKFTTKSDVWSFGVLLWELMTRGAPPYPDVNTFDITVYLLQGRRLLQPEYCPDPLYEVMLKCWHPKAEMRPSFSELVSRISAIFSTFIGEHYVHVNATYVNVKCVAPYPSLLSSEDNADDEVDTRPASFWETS

This assay addresses c-Met (Homo sapiens, UniProt P08581). Briefly: Delfia autophosphorylation kinase assay on the c-Met. The arrangement: The purified His6 tagged cytoplasmic domain of c-Met was diluted to a concentration of 500 ng/ml; host or cells: Sf9 insect cells (baculovirus, pFastBacHTa). Format: biochemical. The conditions noted are these: His6 tagged cytoplasmic domain of c-Met, 1 μM ATP; read-out: cMet Delfia autophos IC-50. The procedure:
A DELFIA time resolved fluorescence assay was developed for screening of compounds that decreases the autophosphorylation thus the kinase activity of c-Met. The DELFIA assay is non-radioactive. The autophosphorylation of the c-Met is measured by an anti-phosphotyrosine antibody coupled to an Europium tag.
A major advantage of this format is that it allowed for the development of an autophosphorylation assay using Ni-chelate plates which bind the hexa-his tag on the recombinant Met kinase. The autophosphorylation assay allows one to use a known substrate, Met kinase itself, for the phosphorylation.
The assay procedure for screening is as follows. The purified His6 tagged cytoplasmic domain of c-Met was diluted to a concentration of 500 ng/ml in enzyme dilution buffer (50 mM Tris-HCl, pH8.0, 0.1% BSA) and dispensed to assay plates at a volume of 50 μl per well. Black opaque HisGrab Nickel coated 96 well plates (Pierce, Rockford, Ill.) were selected for use. Next, 2.5 μl of compound in 40% DMSO was added to test wells, 2.5 μl of 40% DMSO only was added to the negative control wells. The autophosphorylation reaction was initiated upon the addition of 50 μl of reaction buffer, 50 mM Tris-HCl, pH 8.0, 10 mM MgCl2, 0.1 mM Na3VO4, 1 mM DTT, 1 μM ATP. Plates were incubated at room temperature for 1 hour followed by 2 washes with 200 μl/well of PBS. Europium conjugated anti-phosphotyrosine antibody, Eu-PY20 from Perkin Elmer was diluted to 50 ng/ml in Delfia AB buffer (Perkin Elmer, Boston, Mass.), added to the 96 well assay plates at a volume of 100 μl/well, and incubated at room temperature for 2 hours. Assay plates were then washed 4 times each with 200 μl/well of Delfia wash buffer (Perkin Elmer). After the final wash 150 μl of Delfia Enhancement solution (Perkin Elmer) was added to each well of the assay plate and incubated at room temperature for 1 hour. Plates were read on an LJL Analyst instrument (Molecular Devices; Sunnyvale, Calif.) with filter settings of 360 excitation, 620 emission, and 410 dichroic. IC50 values were calculated using Graphpad Prism software (Graphpad Software; San Diego, Calif.).
For the compound `c1cc2c(cc1Cc1nnc3ccc(-c4ccc(N5CCOCC5)nc4)nn13)CCO2` [Example 8, 3-(2,3-Dihydro-benzofuran-5-ylmethyl)-6-(6-morpholin-4-yl-pyridin-3-yl)-[1,2,4]triazolo[4,3-b]pyridazine], the IC50 was 243 nM.
`O=C(c1cncc(-c2ccc3nnc(Cc4ccc5ncccc5c4)n3n2)c1)N1CCOCC1` [Example 10, Morpholin-4-yl-[5-(3-quinolin-6-ylmethyl-[1,2,4]triazolo[4,3-b]pyridazin-6-yl)-pyridin-3-yl]-methanone]: the IC50 was 217 nM.
Turning to `c1cncc(-c2ccc3nnc(Cc4ccc5ncnn5c4)n3n2)c1` [Example 12, 6-Pyridin-3-yl-3-[1,2,4]triazolo[1,5-a]pyridin-6-ylmethyl-[1,2,4]triazolo[4,3-b]pyridazine], the IC50 was found to be 56 nM.
Consider `Clc1cc(Cc2nnc3ccc(-c4cccnc4)nn23)ccn1` [Example 14, 3-(2-Chloro-pyridin-4-ylmethyl)-6-pyridin-3-yl-[1,2,4]triazolo[4,3-b]pyridazine], for which the IC50 is above 10000 nM.
`c1ccc(-c2ccc3nnc(Cc4ccc5c(c4)CCO5)n3n2)nc1` [Example 19, 3-(2,3-Dihydro-benzofuran-5-ylmethyl)-6-pyridin-2-yl-[1,2,4]triazolo[4,3-b]pyridazine]: the IC50 came out at 172 nM.
For the compound `Nc1nc2ccc(Cc3nnc4ccc(-c5cccs5)nn34)cc2o1` [Example 21, 6-(6-Thiophen-2-yl-[1,2,4]triazolo[4,3-b]pyridazin-3-ylmethyl)-benzooxazol-2-ylamine], the IC50 was 23 nM.
As to `c1ccc(Cc2nnc3ccc(-c4cccs4)nn23)cc1` [Example 24, 3-Benzyl-6-thiophen-2-yl-[1,2,4]triazolo[4,3-b]pyridazine], the IC50 came to 1780 nM.
To `Fc1ccc(Cc2nnc3ccc(-c4cccs4)nn23)cc1` [Example 26, 3-(4-Fluoro-benzyl)-6-thiophen-2-yl-[1,2,4]triazolo[4,3-b]pyridazine] belongs 413 nM.
As for `O=[N+]([O-])c1ccc(Cc2nnc3ccc(-c4cccs4)nn23)cc1` [Example 27, 3-(4-Nitro-benzyl)-6-thiophen-2-yl-[1,2,4]triazolo[4,3-b]pyridazine], the figure is 8210 nM; as for `Nc1ccc(Cc2nnc3ccc(-c4cccs4)nn23)cc1` [Example 28, 4(6-Thiophen-2-yl-[1,2,4]triazolo[4,3-b]pyridazin-3-ylmethyl)-phenylamine], 1900 nM.
Consider `CC(=O)Nc1ccc(Cc2nnc3ccc(-c4cccs4)nn23)cc1` [Example 29, N-[4(6-Thiophen-2-yl-[1,2,4]triazolo[4,3-b]pyridazin-3-ylmethyl)-phenyl]-acetamide], for which the IC50 worked out at 86 nM.
In the case of `CCNC(=O)Nc1ccc(Cc2nnc3ccc(-c4cccs4)nn23)cc1` [Example 30, 1-Ethyl-3-[4-(6-thiophen-2-yl-[1,2,4]triazolo[4,3-b]pyridazin-3-ylmethyl)-phenyl]-urea], the IC50 was 570 nM.
To `O=c1ccc(Cc2nnc3ccc(-c4cccs4)nn23)c[nH]1` [Example 32, 5-(6-Thiophen-2-yl-[1,2,4]triazolo[4,3-b]pyridazin-3-ylmethyl)-1H-pyridin-2-one] belongs 305 nM; to `[O-][n+]1ccc(Cc2nnc3ccc(-c4cccs4)nn23)cc1` [Example 34, 3-(1-Oxy-pyridin-4-ylmethyl)-6-thiophen-2-yl-[1,2,4]triazolo[4,3-b]pyridazine], 1190 nM.
As to `c1csc(-c2ccc3nnc(Cc4ccc5sccc5c4)n3n2)c1` [Example 36, 3-Benzo[b]thiophen-5-ylmethyl-6-thiophen-2-yl-[1,2,4]triazolo[4,3-b]pyridazine], the IC50 was determined as 2700 nM.
Regarding `c1cc2c(cc1Cc1nnc3ccc(-c4ccc(CN5CCOCC5)o4)nn13)CCO2` [Example 40, 3-(2,3-Dihydro-benzofuran-5-ylmethyl)-6-(5-morpholin-4-ylmethyl-furan-2-yl)-[1,2,4]triazolo[4,3-b]pyridazine], the IC50 was found to be 1080 nM.
With `COc1cnccc1-c1ccc2nnc(Cc3ccc4c(c3)CCO4)n2n1` [Example 41, 3-(2,3-Dihydro-benzofuran-5-ylmethyl)-6-(3-methoxy-pyridin-4-yl)-[1,2,4]triazolo[4,3-b]pyridazine], the IC50 was 56 nM.
Regarding `Oc1ccc(Cc2nnc3ccc(-n4ccnc4)nn23)cc1` [Example 45, 4-(6-Imidazol-1-yl-[1,2,4]triazolo[4,3-b]pyridazin-3-ylmethyl)-phenol], the IC50 amounted to 70 nM.
As for `Oc1ccc(Cc2nnc3ccc(-n4cccn4)nn23)cc1` [Example 46, 4-(6-Pyrazol-1-yl-[1,2,4]triazolo[4,3-b]pyridazin-3-ylmethyl)-phenol], the figure is 227 nM; as for `FC(F)(c1ccc2ncccc2c1)c1nnc2ccc(-c3cccs3)nn12` [Example 57, 6-[Difluoro-(6-thiophen-2-yl-[1,2,4]triazolo[4,3-b]pyridazin-3-yl)-methyl]-quinoline], 0.3 nM.
To `Cn1cc(-c2ccc3nnc(Cc4ccc5c(ccc[n+]5[O-])c4)n3n2)cn1` [Example 63, 6-[6-(1-Methyl-1H-pyrazol-4-yl)-[1,2,4]triazolo[4,3-b]pyridazin-3-ylmethyl]-quinoline 1-oxide] belongs 600 nM.
As to `Clc1ccc2cc(Cc3nnc4ccc(-c5cccnc5)nn34)ccc2n1` [Example 67, 2-Chloro-6-(6-pyridin-3-yl-[1,2,4]triazolo[4,3-b]pyridazin-3-ylmethyl)-quinoline], the IC50 worked out at 900 nM.
On to `c1cnc2ccc(Cc3nnc4ccc(-c5ccc6nn[nH]c6c5)nn34)cc2c1` [Example 78, 6-[6-(3H-Benzotriazol-5-yl)-[1,2,4]triazolo[4,3-b]pyridazin-3-ylmethyl]-quinoline], for which the IC50 was 320 nM.
`Cc1nc2ccc(Cc3nnc4ccc(-c5cnn(C)c5)nn34)cc2s1` [Example 82, 3-(2-Methyl-benzothiazol-6-ylmethyl)-6-(1-methyl-1H-pyrazol-4-yl)-[1,2,4]triazolo[4,3-b]pyridazine]: the IC50 is 17 nM.
`N#Cc1cncc(-c2ccc3nnc(Cc4ccc5ncccc5c4)n3n2)c1` [Example 83, 5-(3-Quinolin-6-ylmethyl-[1,2,4]triazolo[4,3-b]pyridazin-6-yl)-nicotinonitrile]: the IC50 amounted to 14 nM.
For the compound `c1cncc(-c2ccc3nnc(Cc4cccc5ncccc45)n3n2)c1` [Example 91, 5-(6-Pyridin-3-yl-[1,2,4]triazolo[4,3-b]pyridazin-3-ylmethyl)-quinoline], the IC50 is 1050 nM.
